Data set [1] addresses T1, full-length beta-Catenin (Uniprot ID P35222) (Homo sapiens, UniProt P35222).
T1 construct: 10 nM full-length beta-Catenin (Uniprot ID P35222)
T1 sequence (P35222 1-781): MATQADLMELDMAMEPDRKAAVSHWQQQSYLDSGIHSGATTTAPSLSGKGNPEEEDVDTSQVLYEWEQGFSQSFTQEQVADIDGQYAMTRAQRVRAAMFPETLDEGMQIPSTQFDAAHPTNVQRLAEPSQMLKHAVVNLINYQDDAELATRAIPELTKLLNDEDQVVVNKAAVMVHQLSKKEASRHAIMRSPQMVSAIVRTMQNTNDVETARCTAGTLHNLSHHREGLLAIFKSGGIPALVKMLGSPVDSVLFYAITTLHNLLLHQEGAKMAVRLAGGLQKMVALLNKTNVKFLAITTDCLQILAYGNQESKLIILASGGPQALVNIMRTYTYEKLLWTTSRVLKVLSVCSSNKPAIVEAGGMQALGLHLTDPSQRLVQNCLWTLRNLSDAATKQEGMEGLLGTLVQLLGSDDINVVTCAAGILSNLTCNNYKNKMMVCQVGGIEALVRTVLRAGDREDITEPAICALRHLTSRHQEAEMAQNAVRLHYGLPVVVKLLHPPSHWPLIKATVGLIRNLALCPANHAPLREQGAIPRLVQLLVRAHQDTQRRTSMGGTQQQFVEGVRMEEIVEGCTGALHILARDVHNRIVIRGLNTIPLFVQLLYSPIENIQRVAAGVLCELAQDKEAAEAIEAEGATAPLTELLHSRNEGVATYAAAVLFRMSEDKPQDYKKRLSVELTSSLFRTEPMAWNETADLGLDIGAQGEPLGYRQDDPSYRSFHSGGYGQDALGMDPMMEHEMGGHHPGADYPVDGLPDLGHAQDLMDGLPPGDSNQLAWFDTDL
Description: Fluorescence polarization IC50 (beta-catenin / 5FAM-TCF4 10-53 competition). Type of data set: binding. In general terms: Polarisation of emitted light reports the rotation of a fluorescent probe.

The next data set can be described thus: CHI Log D procedure. Type of data set: physicochemical. Conditions: for chromatographic logD: pH 7.4, CHI Log D; for CHI Log D: pH 7.4.
Where [2] appears, read: fluorescence polarization, read-out: beta-Catenin FP IC50.

Read-outs that look alike come from different tables or passages of the source.

Regarding `CC(=O)N1CCC[C@]12CC=CCCCC1(CCCC=CCCCCCC[C@@](C)(C(=O)N[C@@H](Cc3ccccc3)C(=O)N[C@@H](Cc3csc4ccccc34)C(=O)N[C@@H](CCC(N)=O)C(N)=O)NC(=O)[C@H](CC(N)=O)NC(=O)[C@H](Cc3ccc(N)cc3)NC(=O)[C@H](C)NC(=O)[C@H](C)NC(=O)[C@H](CCC(=O)O)NC(=O)[C@H](CC(=O)O)NC1=O)NC(=O)[C@H](C)NC(=O)[C@H](CC(=O)O)NC2=O` (stereo partly drawn) [I-461, Ac-PL3-Asp-Ala-B5-Asp-Glu-Ala-Ala-4AmPhe-Asn-S8-Phe-BztA-Gln-NH2], the IC50 in data set [1] (setting [2]) is 125 nM. For the same compound, in “CHI Log D procedure”, the chromatographic logD – broadly, a lipophilicity value derived from retention on a column – was 1.94.
Turning to `CC(=O)N1CCC[C@]12CC=CCCCC1(CCCC=CCCCCOC(=O)N3CC[C@@](C(=O)N[C@@H](Cc4ccccc4)C(=O)N[C@@H](Cc4csc5ccccc45)C(=O)N[C@@H](CCC(N)=O)C(N)=O)(C3)NC(=O)[C@H](CC(N)=O)NC(=O)[C@H](Cc3ccccc3)NC(=O)[C@H](C)NC(=O)[C@H](C)NC(=O)[C@H](CCC(=O)O)NC(=O)[C@H](CC(=O)O)NC1=O)NC(=O)[C@H](C)NC(=O)[C@H](CC(=O)O)NC2=O` (stereo partly drawn) [I-463, Ac-PL3-Asp-Ala-B5-Asp-Glu-Ala-Ala-Phe-Asn-PyrS3-Phe-BztA-Gln-NH2], the IC50 in data set [1] (setting [2]) and in data set [1] (read-out: FP EC50) was 92 nM in each case. Moreover, the “CHI Log D” value in “CHI Log D procedure” is listed as 1.785.
Regarding `CC(=O)N1CCC[C@]12CC=CCCCC1(CCCC=CCCCCOC(=O)N3CC[C@@](C(=O)N[C@@H](Cc4ccccc4)C(=O)N[C@@H](Cc4csc5ccccc45)C(=O)N[C@@H](CCC(N)=O)C(N)=O)(C3)NC(=O)[C@H](CC(N)=O)NC(=O)[C@H](Cc3ccccc3)NC(=O)[C@H](C)NC(=O)[C@H](C)NC(=O)[C@H](CCC(=O)O)NC(=O)[C@H](CC(=O)O)NC1=O)NC(=O)[C@H](C)NC(=O)[C@H](CC(=O)O)NC2=O` (stereo partly drawn) [I-464, Ac-PL3-Asp-Ala-B5-Asp-Glu-Ala-Ala-Phe-Asn-PyrS3-Phe-BztA-Gln-NH2], the IC50 in data set [1] (setting [2]) and in data set [1] (read-out: FP EC50) was 57 nM each time. The “CHI Log D” value in the data set “CHI Log D procedure” is reported as 1.831.
For the compound `CC[C@H](C)[C@@H]1NC(=O)[C@H](CC(=O)O)NC(=O)[C@]2(CC=CCCCC3(CCCC=CCCCCCC[C@@](C)(C(=O)N[C@@H](Cc4ccccc4)C(=O)N[C@@H](Cc4csc5ccccc45)C(=O)N[C@@H](Cc4c[nH]cn4)C(N)=O)NC(=O)[C@H](CC(N)=O)NC(=O)[C@H](Cc4ccccc4)NC(=O)[C@H](C)NC(=O)[C@H](C)NC(=O)[C@H](CC(=O)O)NC(=O)[C@H](CC(=O)O)NC3=O)NC1=O)CCCN2C(C)=O` (stereo partly drawn) [I-469, Ac-PL3-Asp-Ile-B5-Asp-Asp-Ala-Ala-Phe-Asn-S8-Phe-BztA-His-NH2], the IC50 in data set [1] (setting [2]) and in data set [1] (read-out: FP EC50) was 27 nM in each case. Besides, the “CHI Log D” value in the data set “CHI Log D procedure” was 2.354.
Regarding `CC[C@H](C)[C@@H]1NC(=O)[C@H](CC(=O)O)NC(=O)[C@]2(CC=CCCCC3(CCCC=CCCCCCC[C@@](C)(C(=O)N[C@@H](Cc4ccccc4)C(=O)N[C@@H](Cc4csc5ccccc45)C(=O)N[C@@H](CCN)C(N)=O)NC(=O)[C@H](CCC(N)=O)NC(=O)[C@H](Cc4ccccc4)NC(=O)[C@H](C)NC(=O)[C@H](C)NC(=O)[C@H](CC(=O)O)NC(=O)[C@H](CC(=O)O)NC3=O)NC1=O)CCCN2C(C)=O` (stereo partly drawn) [I-482, Ac-PL3-Asp-Ile-B5-Asp-Asp-Ala-Ala-Phe-Gln-S8-Phe-BztA-Dab-NH2], the IC50 in data set [1] (setting [2]) is 118 nM. Further, in the data set “CHI Log D procedure”, the chromatographic logD stood at 2.48.
Consider `CC[C@H](C)[C@@H]1NC(=O)[C@H](CC(=O)O)NC(=O)[C@]2(CC=CCCCC3(CCCC=CCCCCCC[C@@](C)(C(=O)N[C@@H](Cc4ccccc4)C(=O)N[C@@H](Cc4csc5ccccc45)C(=O)N[C@@H](CC(N)=O)C(N)=O)NC(=O)[C@H](CCC(N)=O)NC(=O)[C@H](Cc4ccccc4)NC(=O)[C@H](C)NC(=O)[C@H](C)NC(=O)[C@H](CCC(=O)O)NC(=O)[C@H](CC(=O)O)NC3=O)NC1=O)CCCN2C(C)=O` (stereo partly drawn) [I-495, Ac-PL3-Asp-Ile-B5-Asp-Glu-Ala-Ala-Phe-Gln-S8-Phe-BztA-Asn-NH2], for which the IC50 in data set [1] (setting [2]) was determined as 181 nM. This compound returned a chromatographic logD in the data set “CHI Log D procedure” of 2.35.
For `COc1ccccc1C[C@H](NC(=O)[C@]1(C)CCCCCCC=CCCCC2(CCCC=CC[C@]3(CCCN3C(C)=O)C(=O)N[C@@H](CC(=O)O)C(=O)N[C@@H](C)C(=O)N2)C(=O)N[C@@H](CC(=O)O)C(=O)N[C@@H](CCC(=O)O)C(=O)N[C@@H](C)C(=O)N[C@@H](C)C(=O)N[C@@H](Cc2ccccc2)C(=O)N[C@@H](CCC(N)=O)C(=O)N1)C(=O)N[C@@H](Cc1csc2ccccc12)C(=O)N[C@@H](CCC(N)=O)C(N)=O` (stereo partly drawn) [I-525, Ac-PL3-Asp-Ala-B5-Asp-Glu-Ala-Ala-Phe-Gln-S8-2OMeF-BztA-Gln-NH2], the IC50 in data set [1] (setting [2]) and in data set [1] (read-out: FP EC50) was 196 nM each time. The “CHI Log D” value in “CHI Log D procedure” is recorded as 2.019.
For the compound `COc1ccccc1C[C@H](NC(=O)[C@]1(C)CCCCCCC=CCCCC2(CCCC=CC[C@]3(CCCN3C(C)=O)C(=O)N[C@@H](CC(=O)O)C(=O)N[C@@H](C)C(=O)N2)C(=O)N[C@@H](CC(=O)O)C(=O)N[C@@H](CCC(=O)O)C(=O)N[C@@H](C)C(=O)N[C@@H](C)C(=O)N[C@@H](Cc2ccccc2)C(=O)N[C@@H](CCC(N)=O)C(=O)N1)C(=O)N[C@@H](Cc1csc2ccccc12)C(=O)N[C@@H](CCC(N)=O)C(N)=O` (stereo partly drawn) [I-526, Ac-PL3-Asp-Ala-B5-Asp-Glu-Ala-Ala-Phe-Gln-S8-2OMeF-BztA-Gln-NH2], the IC50 in data set [1] (setting [2]) and in data set [1] (read-out: FP EC50) was 56 nM in each case. The “CHI Log D” value in “CHI Log D procedure” turned out to be 2.049.
Regarding `CC[C@H](C)[C@@H]1NC(=O)[C@H](CC(=O)O)NC(=O)[C@]2(CC=CCCCC3(CCCC=CCCCCCC[C@@](C)(C(=O)N[C@@H](Cc4ccccc4OC)C(=O)N[C@@H](Cc4csc5ccccc45)C(=O)N[C@@H](CCC(N)=O)C(N)=O)NC(=O)[C@H](CCC(N)=O)NC(=O)[C@H](Cc4ccccc4)NC(=O)[C@H](C)NC(=O)[C@H](C)NC(=O)[C@H](CCC(=O)O)NC(=O)[C@H](CC(=O)O)NC3=O)NC1=O)CCCN2C(C)=O` (stereo partly drawn) [I-527, Ac-PL3-Asp-Ile-B5-Asp-Glu-Ala-Ala-Phe-Gln-S8-2OMeF-BztA-Gln-NH2], the IC50 in data set [1] (setting [2]) and in data set [1] (read-out: FP EC50) was 98 nM each time. For the same compound, the “CHI Log D” value in the data set “CHI Log D procedure” is reported as 2.376.
For the compound `CC[C@H](C)[C@@H]1NC(=O)[C@H](CC(=O)O)NC(=O)[C@]2(CC=CCCCC3(CCCC=CCCCCCC[C@@](C)(C(=O)N[C@@H](Cc4ccccc4OC)C(=O)N[C@@H](Cc4csc5ccccc45)C(=O)N[C@@H](CCC(N)=O)C(N)=O)NC(=O)[C@H](CCC(N)=O)NC(=O)[C@H](Cc4ccccc4)NC(=O)[C@H](C)NC(=O)[C@H](C)NC(=O)[C@H](CCC(=O)O)NC(=O)[C@H](CC(=O)O)NC3=O)NC1=O)CCCN2C(C)=O` (stereo partly drawn) [I-528, Ac-PL3-Asp-Ile-B5-Asp-Glu-Ala-Ala-Phe-Gln-S8-2OMeF-BztA-Gln-NH2], the IC50 in data set [1] (setting [2]) and in data set [1] (read-out: FP EC50) was 63 nM throughout. Also, the “CHI Log D” value in the data set “CHI Log D procedure” was 2.395.
As to `CC(=O)N1CCC[C@]12CC=CCCCC1(CCCC=CCCCCCC[C@@](C)(C(=O)N[C@@H](Cc3ccccc3)C(=O)N[C@@H](Cc3csc4ccccc34)C(=O)N[C@@H](CCC(N)=O)C(N)=O)NC(=O)[C@H](CC(N)=O)NC(=O)[C@H](Cc3ccccc3)NC(=O)[C@H](C)NC(=O)[C@H](C)NC(=O)[C@H](CC(=O)O)NC(=O)[C@H](CC(=O)O)NC1=O)NC(=O)[C@H](CCC(C)C)NC(=O)[C@H](CC(=O)O)NC2=O` (stereo partly drawn) [I-547, Ac-PL3-Asp-hLeu-B5-Asp-Asp-Ala-Ala-Phe-Asn-S8-Phe-BztA-Gln-NH2], the IC50 in data set [1] (setting [2]) and in data set [1] (read-out: FP EC50) was 43 nM throughout. The “CHI Log D” value in the data set “CHI Log D procedure” is 2.45.
Consider `CC[C@H](C)[C@@H]1NC(=O)[C@H](CC(=O)O)NC(=O)[C@]2(CC=CCCCC3(CCCC=CCCCCCC[C@@](C)(C(=O)N[C@@H](Cc4ccccc4OC)C(=O)N[C@@H](Cc4csc5ccccc45)C(=O)N[C@@H](CCC(N)=O)C(N)=O)NC(=O)[C@H](CC(N)=O)NC(=O)[C@H](Cc4ccccc4)NC(=O)[C@H](C)NC(=O)[C@H](C)NC(=O)[C@H](CC(=O)O)NC(=O)[C@H](CC(=O)O)NC3=O)NC1=O)CCCN2C(C)=O` (stereo partly drawn) [I-549, Ac-PL3-Asp-Ile-B5-Asp-Asp-Ala-Ala-Phe-Asn-S8-2OMeF-BztA-Gln-NH2], for which the IC50 in data set [1] (setting [2]) and in data set [1] (read-out: FP EC50) was 71 nM each time. Besides, in the data set “CHI Log D procedure”, the “CHI Log D” value is on record as 2.291.
As to `CC[C@H](C)[C@@H]1NC(=O)[C@H](CC(=O)O)NC(=O)[C@]2(CC=CCCCC3(CCCC=CCCCCCC[C@@](C)(C(=O)N[C@@H](Cc4ccsc4)C(=O)N[C@@H](Cc4csc5ccccc45)C(=O)N[C@@H](CCC(N)=O)C(N)=O)NC(=O)[C@H](CC(N)=O)NC(=O)[C@H](Cc4ccccc4)NC(=O)[C@H](C)NC(=O)[C@H](C)NC(=O)[C@H](CC(=O)O)NC(=O)[C@H](CC(=O)O)NC3=O)NC1=O)CCCN2C(C)=O` (stereo partly drawn) [I-552, Ac-PL3-Asp-Ile-B5-Asp-Asp-Ala-Ala-Phe-Asn-S8-3Thi-BztA-Gln-NH2], the IC50 in data set [1] (setting [2]) and in data set [1] (read-out: FP EC50) was 15.5 nM each time. Further, the “CHI Log D” value in “CHI Log D procedure” stood at 2.334.
